Results: patent US9556201B2, “Bicyclic pyridines and analogs as sirtuin modulators” (GLAXOSMITHKLINE LLC, priority 2009, dated 2017)

Key:
SIRT1 = target: T1, SIRT1 (Homo sapiens, UniProt Q96EB6); test: Mass spectrometry based assay to identify modulators of SIRT1 activity (deacetylation of p53-based acetylated peptide substrate); format: biochemical; conditions: for Emax: 25 min, SIRT1 activation, read-out: % FOLD ACT. (percent maximum fold activation)
T1 sequence (Q96EB6 1-747): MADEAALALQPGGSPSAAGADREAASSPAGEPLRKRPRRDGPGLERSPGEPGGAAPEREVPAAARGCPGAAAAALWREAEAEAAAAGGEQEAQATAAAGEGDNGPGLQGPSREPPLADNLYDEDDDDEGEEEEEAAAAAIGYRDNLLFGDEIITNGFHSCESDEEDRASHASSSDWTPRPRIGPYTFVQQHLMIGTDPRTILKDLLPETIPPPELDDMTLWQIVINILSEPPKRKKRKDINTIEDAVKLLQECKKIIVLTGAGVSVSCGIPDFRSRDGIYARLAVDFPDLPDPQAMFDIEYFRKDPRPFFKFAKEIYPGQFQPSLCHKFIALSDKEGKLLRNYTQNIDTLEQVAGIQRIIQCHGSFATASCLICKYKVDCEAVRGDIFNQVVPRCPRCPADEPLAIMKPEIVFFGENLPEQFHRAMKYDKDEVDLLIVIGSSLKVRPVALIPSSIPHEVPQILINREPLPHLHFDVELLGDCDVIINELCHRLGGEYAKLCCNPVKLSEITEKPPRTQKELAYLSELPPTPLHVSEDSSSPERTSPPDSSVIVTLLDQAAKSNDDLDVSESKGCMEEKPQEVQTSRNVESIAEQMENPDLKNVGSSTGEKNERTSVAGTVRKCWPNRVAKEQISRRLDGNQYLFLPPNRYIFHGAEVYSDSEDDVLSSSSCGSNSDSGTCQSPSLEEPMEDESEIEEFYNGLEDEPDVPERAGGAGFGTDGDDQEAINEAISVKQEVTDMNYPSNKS
Procedure, shortened: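 His-tagged human SIRT1 (10 nM, E. coli) incubated 25 min at 25 °C with […] p53-derived acetylated 5TMR peptide and 120 μM βNAD+ in pH 8 Tris-acetate buffer, then formic acid-stopped. Mass spectrometry quantifies acetylated vs deacetylated peptide; nicotinamide and DMSO controls.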

TNF = TNF IC50 (column of Table 1; method not in the text shown); format: cell-based

Row | EC1.5 (concentration giving 1.5-fold activation) (SIRT1) [nM] | Emax (SIRT1) [%] | IC50 (TNF) [µM] | Compound
1 | < 1000 | > 200 | ≥ 20 | Cc1cc(NC(=O)N2CCCC(=O)c3ccc(-c4cccc(Cl)c4)nc32)ccn1 [Compound 750]
2 | < 1000 | > 200 | < 20 | CC1CCN(C(=O)Nc2ccncc2)c2nc(-c3cccc(C(F)(F)F)c3)ccc21 (stereo not drawn) [Compound 786, 4-methyl-N-(pyridin-4-yl)-7-(3-(trifluoromethyl)phenyl)-3,4-dihydro-1,8-naphthyridine-1(2H)-carboxamide]
3 | < 1000 | ≤ 200 | < 20 | CC1CCN(C(=O)Nc2ccc(F)cn2)c2nc(-c3cccc(C(F)(F)F)c3)ccc21 (stereo not drawn) [Compound 800]
4 | < 1000 | > 200 | < 20 | CC1CCN(C(=O)Nc2ccncn2)c2nc(-c3cccc(C(F)(F)F)c3)ccc21 (stereo not drawn) [Compound 805]
5 | < 1000 | > 200 | < 20 | O=C(Nc1ccnc(OC[C@H](O)CO)n1)N1CCC(F)(F)c2ccc(-c3cccc(C(F)(F)F)c3)nc21 [Compound 825]
6 | < 1000 | > 200 | ≥ 20 | COc1nccc(NC(=O)N2CCCC(=O)c3ccc(-c4cccc(C(F)(F)F)c4)nc32)n1 [Compound 830]
7 | < 1000 | > 200 | ≥ 20 | CC1(C)CCN(C(=O)Nc2ccncn2)c2nc(-c3cccc(C(F)(F)F)c3)ccc21 [Compound 838]
8 | < 1000 | > 200 | < 20 | CC1(C)CCN(C(=O)Nc2ccnc(OC[C@H](O)CO)n2)c2nc(-c3cccc(C(F)(F)F)c3)ccc21 [Compound 845]
9 | < 1000 | > 200 | < 20 | O=C(Nc1ccncc1)N1CCc2ccc(-c3cccc(C(F)(F)F)c3)nc21 [Compound 849]
10 | < 1000 | > 200 | ≥ 20 | O=C(Nc1ccncn1)N1CCc2ccc(-c3cccc(C(F)(F)F)c3)nc21 [Compound 850]
11 | < 1000 | > 200 | ≥ 20 | Cc1csc(NC(=O)N2CCc3ccc(-c4cccc(C(F)(F)F)c4)nc32)n1 [Compound 851]
12 | < 1000 | > 200 | ≥ 20 | O=C(Nc1ccccn1)N1CCc2ccc(-c3cccc(C(F)(F)F)c3)nc21 [Compound 861, N-(pyridin-2-yl)-6-(3-(trifluoromethyl)phenyl)-2,3-dihydro-1H-pyrrolo[2,3-b]pyridine-1-carboxamide]
13 | < 1000 | > 200 | < 20 | O=C(Nc1cncc(OCC(O)CO)n1)N1CCc2ccc(-c3cccc(C(F)(F)F)c3)nc21 (stereo not drawn) [Compound 868]
14 | < 1000 | > 200 | < 20 | O=C(Nc1cccc(N2CC3(CCO3)C2)n1)N1CCc2ccc(-c3cccc(C(F)(F)F)c3)nc21 [Compound 869]
15 | < 1000 | > 200 | < 20 | O=C(Nc1ccncc1F)N1CCc2ccc(-c3cccc(C(F)(F)F)c3)nc21 [Compound 870]
16 | < 1000 | > 200 | ≥ 20 | O=C(Nc1ccnc(OCC(O)CO)n1)N1CCc2ccc(-c3cccc(C(F)(F)F)c3)nc21 (stereo not drawn) [Compound 874]
17 | < 1000 | > 200 | < 20 | O=C(Nc1cc(OCC(O)CO)ccn1)N1CCc2ccc(-c3cccc(C(F)(F)F)c3)nc21 (stereo not drawn) [Compound 875]
18 | < 1000 | > 200 | < 20 | O=C(Nc1cccc(N2CC3(COC3)C2)n1)N1CCc2ccc(-c3cccc(C(F)(F)F)c3)nc21 [Compound 877]

The next lines start with the molecule.

Row | Compound | EC1.5 (concentration giving 1.5-fold activation) (SIRT1) [nM] | Emax (SIRT1) [%] | IC50 (TNF) [µM]
19 | Cc1cncc(NC(=O)N2CC(C)(C)Oc3ccc(-c4cccc(N5CC[C@@H](F)C5)c4)nc32)c1 [Compound 701, (R)-6-(3-(3-fluoropyrrolidin-1-yl)phenyl)-2,2-dimethyl-N-(5-methylpyridin-3-yl)-2H-pyrido[3,2-b][1,4]oxazine-4(3H)-carboxamide] | < 1000 | > 200 | < 20
20 | Cc1csc(NC(=O)N2CC(C)(C)Oc3ccc(-c4cccc(N5CC[C@@H](F)C5)c4)nc32)n1 [Compound 707] | < 1000 | > 200 | ≥ 20
21 | Cc1cncc(NC(=O)N2CCOc3cnc(-c4cccc(C(F)(F)F)c4)nc32)c1 [Compound 710] | < 1000 | > 200 | ≥ 20
22 | Cc1cc(NC(=O)N2CCOc3cnc(-c4cccc(C(F)(F)F)c4)nc32)cc(C)n1 [Compound 711] | < 1000 | > 200 | ≥ 20
23 | O=C(Nc1ccnc(N2CCC2)c1)N1CCOc2cnc(-c3cccc(C(F)(F)F)c3)nc21 [Compound 713] | < 1000 | > 200 | ≥ 20
24 | O=C(Nc1cccc(OCC(O)CO)n1)N1CCOc2cnc(-c3cccc(C(F)(F)F)c3)nc21 (stereo not drawn) [Compound 717] | < 1000 | ≤ 200 | ≥ 20
25 | O=C(Nc1cccc(OC[C@@H](O)CO)n1)N1CCC(F)(F)c2ccc(-c3cccc(C(F)(F)F)c3)nc21 [Compound 745] | < 1000 | > 200 | < 20
26 | Cc1csc(NC(=O)N2CCC(C)c3ccc(-c4cccc(C(F)(F)F)c4)nc32)n1 (stereo not drawn) [Compound 787] | < 1000 | > 200 | ≥ 20
27 | CCN1CCCN(C(=O)Nc2cc(C)nc(C)c2)c2nc(-c3cccc(Cl)c3)ccc21 [Compound 793] | < 1000 | > 200 | < 20
28 | CCN1CCCN(C(=O)Nc2nc(C)cs2)c2nc(-c3cccc(Cl)c3)ccc21 [Compound 794] | < 1000 | > 200 | < 20
29 | CCN1CCCN(C(=O)Nc2ccnc(C)c2)c2nc(-c3cccc(Cl)c3)ccc21 [Compound 795] | < 1000 | > 200 | < 20
30 | CC1CCN(C(=O)Nc2cccc(OC[C@@H](O)CO)n2)c2nc(-c3cccc(C(F)(F)F)c3)ccc21 (stereo partly drawn) [Compound 801] | < 1000 | > 200 | < 20
31 | CC1CCN(C(=O)Nc2ccncc2F)c2nc(-c3cccc(C(F)(F)F)c3)ccc21 (stereo not drawn) [Compound 804] | < 1000 | > 200 | < 20
32 | O=C(Nc1cncc(OCC(O)CO)n1)N1CCC(F)(F)c2ccc(-c3cccc(C(F)(F)F)c3)nc21 (stereo not drawn) [Compound 813] | < 1000 | > 200 | < 20
33 | O=C(Nc1cccc(N2CC3(CCO3)C2)n1)N1CCOc2ccc(-c3cccc(C(F)(F)F)c3)nc21 [Compound 823, N-(6-(1-oxa-6-azaspiro[3.3]heptan-6-yl)pyridin-2-yl)-6-(3-(trifluoromethyl)phenyl)-2H-pyrido[3,2-b][1,4]oxazine-4(3H)-carboxamide] | < 1000 | > 200 | ≥ 20
34 | Cc1csc(NC(=O)N2CCC(C)(C)c3ccc(-c4cccc(C(F)(F)F)c4)nc32)n1 [Compound 839] | < 1000 | > 200 | < 20
35 | CC1(C)CCN(C(=O)Nc2cccc(OC[C@@H](O)CO)n2)c2nc(-c3cccc(C(F)(F)F)c3)ccc21 [Compound 840] | < 1000 | > 200 | < 20
36 | CC1(C)CCN(C(=O)Nc2cncc(OCC(O)CO)n2)c2nc(-c3cccc(C(F)(F)F)c3)ccc21 (stereo not drawn) [Compound 848] | < 1000 | > 200 | < 20
37 | O=C(Nc1cc(OCC(O)CO)ccn1)N1CCC(F)(F)c2ccc(-c3cccc(C(F)(F)F)c3)nc21 (stereo not drawn) [Compound 860] | < 1000 | > 200 | < 20
38 | O=C(Nc1ccnc(OC[C@H](O)CO)c1)N1CCCOc2ccc(-c3cccc(Cl)c3)nc21 [Compound 864] | 1000 to 25000 | > 200 | < 20
39 | COc1cc(NC(=O)N2CCCOc3ccc(-c4cccc(Cl)c4)nc32)nc(OC)n1 [Compound 873] | < 1000 | > 200 | ≥ 20
40 | O=C(Nc1ccnc(OCC(O)CO)n1)N1CCCOc2ccc(-c3cccc(Cl)c3)nc21 (stereo not drawn) [Compound 876] | < 1000 | > 200 | < 20
